Results: the supplement of paper PMC10307832

Legend:
Experiment in all cases: relative viability (nuclei count vs DMSO), 5 days (fraction); higher = more cells survive
[1] = compound: COc1cccc2cc(-c3nc([C@H]4CC[C@H](C(=O)O)CC4)n4ncnc(N)c34)[nH]c12 [OSI-027] + CC(=O)Nc1cccc(-n2c(=O)n(C3CC3)c(=O)c3c(Nc4ccc(I)cc4F)n(C)c(=O)c(C)c32)c1 [Trametinib] (partner 0.02 µM)
In short: (§1)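 After 5 days of treatment, lung cancer cells in 1536-well plates were fixed and stained in a single step (final 0.05% Triton X-100, 1% formaldehyde, 1 ug/ml Hoechst) and their nuclei counted on 4× images. Treatment had been applied by pin tool the day after seeding as one drug alone or as a fixed anchor-drug dose with five library-drug doses (not always all listed) in √10 steps. Relative viability is the nuclei count of treated wells divided by that of vehicle wells, and values are medians of duplicate plates.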

[2] = compound: COc1cccc2cc(-c3nc([C@H]4CC[C@H](C(=O)O)CC4)n4ncnc(N)c34)[nH]c12 [OSI-027] + Cc1nc(NC(=O)N2CCC[C@H]2C(N)=O)sc1-c1ccnc(C(C)(C)C(F)(F)F)c1 [Alpelisib] (partner 2 µM)
In short: as §1

[3] = compound: Cc1nc(NC(=O)N2CCC[C@H]2C(N)=O)sc1-c1ccnc(C(C)(C)C(F)(F)F)c1 [Alpelisib] + CC(=O)Nc1cccc(-n2c(=O)n(C3CC3)c(=O)c3c(Nc4ccc(I)cc4F)n(C)c(=O)c(C)c32)c1 [Trametinib] (partner 0.02 µM)
In short: as §1

[4] = compound: Cc1nc(NC(=O)N2CCC[C@H]2C(N)=O)sc1-c1ccnc(C(C)(C)C(F)(F)F)c1 [Alpelisib] + CC(=O)c1c(C)c2cnc(Nc3ccc(N4CCNCC4)cn3)nc2n(C2CCCC2)c1=O [Palbociclib] (partner 0.5 µM)
In short: as §1

Row | Cell Line | relative viability ([1]; first compound 0.01 µM) | relative viability ([1]; first compound 0.03162 µM) | relative viability ([1]; first compound 0.1 µM) | relative viability ([1]; first compound 0.3162 µM) | relative viability ([1]; first compound 1 µM) | relative viability ([2]; first compound 0.01 µM) | relative viability ([2]; first compound 0.03162 µM) | relative viability ([2]; first compound 0.1 µM) | relative viability ([2]; first compound 0.3162 µM) | relative viability ([2]; first compound 1 µM) | relative viability ([3]; first compound 0.04 µM) | relative viability ([3]; first compound 0.1265 µM) | relative viability ([3]; first compound 0.4 µM) | relative viability ([3]; first compound 1.265 µM) | relative viability ([3]; first compound 4 µM) | relative viability ([4]; first compound 0.04 µM) | relative viability ([4]; first compound 0.1265 µM) | relative viability ([4]; first compound 0.4 µM) | relative viability ([4]; first compound 1.265 µM) | relative viability ([4]; first compound 4 µM)
1 | NCI-H2347 | 0.29 | 0.25 | 0.268 | 0.278 | 0.205 | 1.11 | 0.899 | 0.974 | 0.717 | 0.416 | 0.29 | 0.285 | 0.394 | 0.244 | 0.232 | 0.417 | 0.45 | 0.407 | 0.474 | 0.423
2 | NCI-H2405 | 0.643 | 0.663 | 0.597 | 0.471 | 0.373 | 0.783 | 0.664 | 0.577 | 0.475 | 0.33 | 0.509 | 0.641 | 0.549 | 0.369 | 0.381 | 0.515 | 0.536 | 0.52 | 0.43 | 0.462
3 | NCI-H3122 | 0.273 | 0.238 | 0.178 | 0.191 | 0.097 | 0.711 | 0.762 | 0.657 | 0.405 | 0.284 | 0.201 | 0.221 | 0.172 | 0.181 | 0.136 | 0.163 | 0.162 | 0.188 | 0.185 | 0.144
4 | PC-3 [JPC-3] | 0.616 | 0.651 | 0.599 | 0.603 | 0.437 | 1.06 | 1.03 | 0.986 | 0.802 | 0.43 | 0.704 | 0.602 | 0.685 | 0.655 | 0.578 | 0.591 | 0.556 | 0.581 | 0.521 | 0.559
5 | PC-14 | 0.793 | 0.934 | 0.71 | 0.649 | 0.282 | 0.855 | 0.641 | 1.01 | 1.03 | 0.65 | 0.735 | 0.686 | 0.62 | 0.292 | 0.709 | 0.556 | 0.499 | 0.602 | 0.464 | 0.497
6 | RERF-LC-KJ | 0.709 | 0.832 | 0.815 | 0.667 | 0.406 | 0.698 | 0.793 | 0.641 | 0.507 | 0.361 | 0.86 | 0.933 | 0.895 | 0.645 | 0.693 | 1.1 | 1.03 | 1.16 | 0.759 | 0.928
7 | SK-LU-1 | 0.458 | 0.491 | 0.457 | 0.334 | 0.327 | 1.25 | 0.978 | 0.64 | 0.394 | 0.304 | 0.474 | 0.566 | 0.53 | 0.392 | 0.345 | 0.398 | 0.372 | 0.386 | 0.326 | 0.377
8 | SK-MES-1 | 0.531 | 0.523 | 0.478 | 0.483 | 0.394 | 0.898 | 0.841 | 0.811 | 0.534 | 0.337 | 0.59 | 0.523 | 0.534 | 0.334 | 0.385 | 0.361 | 0.307 | 0.313 | 0.254 | 0.3
9 | SW 1573 | 0.711 | 0.543 | 0.491 | 0.409 | 0.411 | 0.738 | 0.76 | 0.661 | 0.669 | 0.39 | 0.562 | 0.586 | 0.553 | 0.363 | 0.388 | 0.409 | 0.401 | 0.366 | 0.201 | 0.284
